Tests used:
JAK1 = JAK1 (Homo sapiens (Human), UniProt P23458); experiment: Biochemical JAK1 kinase assay (LanthaScreen)
Summary of the method: (§1)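 GST-JAK + GFP-STAT1 peptide, HEPES pH 7.5/MgCl2/EGTA/Brij-35 buffer; cpd preincubation 1 h RT; ATP start, 1 h RT; stop with 10 mM EDTA + 2 nM Tb-anti-pSTAT1; TR-FRET 520/495. 4-parameter IC50 → pKi (Cheng-Prusoff).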

JAK2 = JAK2 (Homo sapiens (Human), UniProt O60674); experiment: Biochemical JAK2 kinase assay (LanthaScreen)
Summary of the method: as §1

JAK3 = JAK3 (Homo sapiens (Human), UniProt P52333); experiment: Biochemical JAK3 kinase assay (LanthaScreen); conditions: for JAK3 (pKi)-JAK1 (pKi): selectivity JAK3 over JAK1, difference of pKi
Summary of the method: as §1

Tyk2 = Tyk2 (Homo sapiens (Human), UniProt P29597); experiment: Biochemical Tyk2 kinase assay (LanthaScreen)
Summary of the method: as §1

[1] = test system: IL-2 stimulated STAT5 phosphorylation in Tall-1 human T cell line (JAK3); experiment: Cellular JAK3 potency assay: inhibition of IL-2 stimulated pSTAT5 in Tall-1 T cells; type: cell-based; conditions: IL-2 stimulated pSTAT5, Tall-1 T cells
Summary of the method: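 Tall-1 cells, 45,000 per well, preincubated 1 hour with compound at 37 °C, then stimulated 30 minutes with IL-2 at 300 ng/ml final. pSTAT5 (Tyr694/699) in lysates quantified by AlphaLISA SureFire Ultra. pIC50 derived from inhibition curves, given as mean with SD.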

Sequence of JAK1 (P23458 whole entry): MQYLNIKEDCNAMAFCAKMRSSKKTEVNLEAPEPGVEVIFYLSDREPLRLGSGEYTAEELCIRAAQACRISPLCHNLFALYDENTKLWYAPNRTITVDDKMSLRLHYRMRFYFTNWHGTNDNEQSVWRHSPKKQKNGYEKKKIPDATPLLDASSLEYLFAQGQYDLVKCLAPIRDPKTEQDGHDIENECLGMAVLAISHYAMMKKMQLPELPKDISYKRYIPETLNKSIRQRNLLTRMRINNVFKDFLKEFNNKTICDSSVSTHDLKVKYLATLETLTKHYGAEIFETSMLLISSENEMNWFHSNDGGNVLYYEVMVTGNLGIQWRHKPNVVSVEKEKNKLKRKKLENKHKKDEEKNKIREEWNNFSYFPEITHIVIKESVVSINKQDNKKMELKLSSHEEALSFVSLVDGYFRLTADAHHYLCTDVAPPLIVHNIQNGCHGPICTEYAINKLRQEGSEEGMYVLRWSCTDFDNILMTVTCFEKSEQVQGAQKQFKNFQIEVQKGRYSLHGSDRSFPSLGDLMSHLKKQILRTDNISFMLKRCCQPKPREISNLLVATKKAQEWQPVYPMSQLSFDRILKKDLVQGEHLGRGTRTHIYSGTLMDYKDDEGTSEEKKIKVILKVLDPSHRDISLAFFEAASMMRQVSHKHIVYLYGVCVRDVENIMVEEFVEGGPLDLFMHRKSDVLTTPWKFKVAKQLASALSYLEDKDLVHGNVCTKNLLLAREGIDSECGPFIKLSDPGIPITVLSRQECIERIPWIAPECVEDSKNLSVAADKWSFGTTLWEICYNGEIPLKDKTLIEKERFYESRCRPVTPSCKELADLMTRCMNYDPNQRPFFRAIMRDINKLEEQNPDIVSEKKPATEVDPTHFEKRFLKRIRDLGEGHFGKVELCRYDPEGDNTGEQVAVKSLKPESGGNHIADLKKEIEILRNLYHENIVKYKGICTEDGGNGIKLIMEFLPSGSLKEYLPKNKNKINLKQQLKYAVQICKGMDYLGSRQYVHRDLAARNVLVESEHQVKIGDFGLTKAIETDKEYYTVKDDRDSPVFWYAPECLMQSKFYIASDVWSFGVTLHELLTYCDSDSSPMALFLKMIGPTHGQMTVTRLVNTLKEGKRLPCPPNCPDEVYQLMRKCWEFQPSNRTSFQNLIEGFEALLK
Sequence of JAK2 (O60674 whole entry): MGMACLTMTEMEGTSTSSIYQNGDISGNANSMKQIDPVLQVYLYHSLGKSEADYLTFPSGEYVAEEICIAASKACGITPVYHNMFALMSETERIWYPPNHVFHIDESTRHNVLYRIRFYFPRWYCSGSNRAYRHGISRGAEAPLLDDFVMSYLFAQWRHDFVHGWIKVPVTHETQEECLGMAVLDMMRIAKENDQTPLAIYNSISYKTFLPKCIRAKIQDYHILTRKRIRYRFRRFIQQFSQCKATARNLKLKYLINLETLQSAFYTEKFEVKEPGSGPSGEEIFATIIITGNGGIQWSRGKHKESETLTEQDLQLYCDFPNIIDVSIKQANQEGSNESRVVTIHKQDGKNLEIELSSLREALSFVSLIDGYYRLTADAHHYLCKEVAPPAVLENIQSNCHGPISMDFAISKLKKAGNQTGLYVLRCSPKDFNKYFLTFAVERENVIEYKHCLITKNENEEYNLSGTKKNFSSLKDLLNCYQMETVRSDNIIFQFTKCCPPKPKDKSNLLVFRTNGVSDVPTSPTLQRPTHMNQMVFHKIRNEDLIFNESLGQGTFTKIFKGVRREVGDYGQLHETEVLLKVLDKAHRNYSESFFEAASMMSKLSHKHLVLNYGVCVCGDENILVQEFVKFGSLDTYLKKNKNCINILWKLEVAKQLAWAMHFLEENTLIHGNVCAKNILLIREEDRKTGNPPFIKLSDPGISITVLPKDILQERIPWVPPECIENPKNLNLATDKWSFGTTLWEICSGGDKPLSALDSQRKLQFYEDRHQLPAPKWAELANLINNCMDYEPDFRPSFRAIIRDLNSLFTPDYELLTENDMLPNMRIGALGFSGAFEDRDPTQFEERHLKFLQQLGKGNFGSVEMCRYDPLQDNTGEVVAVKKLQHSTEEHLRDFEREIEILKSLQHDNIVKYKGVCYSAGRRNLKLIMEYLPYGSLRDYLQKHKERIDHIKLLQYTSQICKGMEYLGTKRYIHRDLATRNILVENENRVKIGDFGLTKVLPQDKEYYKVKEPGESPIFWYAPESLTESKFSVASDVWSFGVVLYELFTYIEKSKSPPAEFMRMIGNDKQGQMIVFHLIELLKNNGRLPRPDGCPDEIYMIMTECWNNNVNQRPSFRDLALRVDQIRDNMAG
Sequence of Tyk2 (P29597 whole entry): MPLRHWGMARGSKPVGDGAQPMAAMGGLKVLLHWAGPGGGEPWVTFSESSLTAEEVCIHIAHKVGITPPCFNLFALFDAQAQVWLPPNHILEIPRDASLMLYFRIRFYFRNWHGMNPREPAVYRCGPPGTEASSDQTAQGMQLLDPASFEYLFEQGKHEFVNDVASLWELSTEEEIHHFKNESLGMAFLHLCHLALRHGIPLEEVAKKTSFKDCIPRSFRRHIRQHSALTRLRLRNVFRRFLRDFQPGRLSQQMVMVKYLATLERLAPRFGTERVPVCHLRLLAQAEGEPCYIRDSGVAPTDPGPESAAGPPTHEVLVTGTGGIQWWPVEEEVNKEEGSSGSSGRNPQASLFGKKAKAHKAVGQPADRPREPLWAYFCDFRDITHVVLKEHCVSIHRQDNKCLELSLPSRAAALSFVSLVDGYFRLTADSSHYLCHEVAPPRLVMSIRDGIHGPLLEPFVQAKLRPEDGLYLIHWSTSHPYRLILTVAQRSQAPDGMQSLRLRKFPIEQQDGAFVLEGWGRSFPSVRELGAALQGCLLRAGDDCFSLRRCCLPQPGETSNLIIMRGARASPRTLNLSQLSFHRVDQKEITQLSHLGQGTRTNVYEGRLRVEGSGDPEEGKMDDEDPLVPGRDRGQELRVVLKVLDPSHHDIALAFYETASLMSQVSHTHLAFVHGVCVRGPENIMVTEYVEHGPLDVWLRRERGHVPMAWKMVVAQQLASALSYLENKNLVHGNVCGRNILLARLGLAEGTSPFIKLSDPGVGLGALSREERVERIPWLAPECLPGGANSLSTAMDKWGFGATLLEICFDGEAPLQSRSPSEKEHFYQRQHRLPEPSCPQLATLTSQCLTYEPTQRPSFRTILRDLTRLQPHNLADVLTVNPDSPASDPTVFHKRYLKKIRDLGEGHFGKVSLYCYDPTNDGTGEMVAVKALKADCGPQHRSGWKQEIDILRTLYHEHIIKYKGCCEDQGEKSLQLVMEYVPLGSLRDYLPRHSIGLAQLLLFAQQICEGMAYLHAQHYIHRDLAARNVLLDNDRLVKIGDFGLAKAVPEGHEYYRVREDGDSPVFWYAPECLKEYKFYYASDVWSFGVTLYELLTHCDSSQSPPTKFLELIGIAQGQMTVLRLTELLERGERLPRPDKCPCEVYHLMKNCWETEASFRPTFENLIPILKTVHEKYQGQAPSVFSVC
Sequence of JAK3 (P52333 whole entry): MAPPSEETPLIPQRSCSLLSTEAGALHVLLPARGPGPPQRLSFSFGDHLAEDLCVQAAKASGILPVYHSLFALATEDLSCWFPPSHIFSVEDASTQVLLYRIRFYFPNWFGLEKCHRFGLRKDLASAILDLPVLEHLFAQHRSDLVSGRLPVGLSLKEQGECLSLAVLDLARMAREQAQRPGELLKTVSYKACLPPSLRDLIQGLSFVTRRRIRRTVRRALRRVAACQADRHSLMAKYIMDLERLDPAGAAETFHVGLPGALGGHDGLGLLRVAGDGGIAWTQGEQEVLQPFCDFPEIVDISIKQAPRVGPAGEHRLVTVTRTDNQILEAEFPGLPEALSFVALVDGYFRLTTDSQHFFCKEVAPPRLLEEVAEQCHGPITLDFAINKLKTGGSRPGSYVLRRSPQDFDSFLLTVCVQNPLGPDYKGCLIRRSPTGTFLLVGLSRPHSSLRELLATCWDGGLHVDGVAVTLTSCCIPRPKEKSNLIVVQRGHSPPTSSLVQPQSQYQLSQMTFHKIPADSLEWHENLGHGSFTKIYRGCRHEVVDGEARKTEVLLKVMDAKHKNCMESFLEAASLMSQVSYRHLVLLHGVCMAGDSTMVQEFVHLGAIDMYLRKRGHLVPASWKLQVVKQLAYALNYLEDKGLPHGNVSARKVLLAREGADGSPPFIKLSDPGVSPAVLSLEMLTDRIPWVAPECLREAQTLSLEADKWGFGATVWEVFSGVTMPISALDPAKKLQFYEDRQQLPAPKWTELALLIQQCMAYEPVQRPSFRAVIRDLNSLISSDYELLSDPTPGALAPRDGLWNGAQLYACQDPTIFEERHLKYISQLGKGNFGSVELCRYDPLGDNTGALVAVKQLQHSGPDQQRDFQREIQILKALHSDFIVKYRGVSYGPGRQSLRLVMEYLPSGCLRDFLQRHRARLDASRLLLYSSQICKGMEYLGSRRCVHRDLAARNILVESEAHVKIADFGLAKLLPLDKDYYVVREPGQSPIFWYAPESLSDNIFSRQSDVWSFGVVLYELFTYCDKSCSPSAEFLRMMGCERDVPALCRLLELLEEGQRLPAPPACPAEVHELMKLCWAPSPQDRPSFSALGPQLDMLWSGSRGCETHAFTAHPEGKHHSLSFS

| Compound | JAK 1 (pKi) (JAK1) | JAK 2 (pKi) (JAK2) | JAK 3 (pKi) (JAK3) | JAK3 (pKi)-JAK1 (pKi) (JAK3) | Tyk 2 (pKi) (Tyk2) | Tall-1 (pIC50) [1] |
| --- | --- | --- | --- | --- | --- | --- |
| C=CC(=O)N1CC(CC)(CCn2c(=O)ccc3cnc(Nc4ccc(N5CCN(C)CC5)cc4)nc32)C1 [Example 217] | E (E represents a pKi value of 7 or below (Ki of 100 nM or above)) | D (D represents a pKi value between 7 and 8 (Ki between 100 nM and 10 nM)) | B (B represents pKi value between 9 and 10 (Ki between 1 nM and 0.1 nM)) | A (A represents a value of 3 or above) | E (E represents a pKi value of 7 or below (Ki of 100 nM or above)) | A (A represents a pIC50 value≥7.5 (IC50≤32 nM)) |
| C=CC(=O)N1CCN(CCn2c(=O)ccc3cnc(Nc4ccc(N5CCN(C(C)(C)C)CC5)cc4)nc32)CC1 [Example 219] | E (E represents a pKi value of 7 or below (Ki of 100 nM or above)) | E (E represents a pKi value of 7 or below (Ki of 100 nM or above)) | B (B represents pKi value between 9 and 10 (Ki between 1 nM and 0.1 nM)) | A (A represents a value of 3 or above) | E (E represents a pKi value of 7 or below (Ki of 100 nM or above)) | A (A represents a pIC50 value≥7.5 (IC50≤32 nM)) |
| C=CC(=O)N1CCN(CCn2c(=O)ccc3cnc(Nc4cnn(CCOC(C)C)c4)nc32)[C@@H](CC)C1 [Example 220] | E (E represents a pKi value of 7 or below (Ki of 100 nM or above)) | E (E represents a pKi value of 7 or below (Ki of 100 nM or above)) | B (B represents pKi value between 9 and 10 (Ki between 1 nM and 0.1 nM)) | A (A represents a value of 3 or above) | E (E represents a pKi value of 7 or below (Ki of 100 nM or above)) | B (B represents a pC50 value between 6.7 (included) and 7.5 (IC50 between 200 nM and 32 nM)) |
| C=CC(=O)N1CCN(CCn2c(=O)ccc3cnc(Nc4cnn(CCOCC)c4)nc32)[C@@H](CC)C1 [Example 221] | E (E represents a pKi value of 7 or below (Ki of 100 nM or above)) | E (E represents a pKi value of 7 or below (Ki of 100 nM or above)) | B (B represents pKi value between 9 and 10 (Ki between 1 nM and 0.1 nM)) | A (A represents a value of 3 or above) | E (E represents a pKi value of 7 or below (Ki of 100 nM or above)) | B (B represents a pC50 value between 6.7 (included) and 7.5 (IC50 between 200 nM and 32 nM)) |
| C=CC(=O)N1CC(CCn2c(=O)ccc3cnc(Nc4ccc(OCCO)cc4)nc32)C1 [Example 223] | E (E represents a pKi value of 7 or below (Ki of 100 nM or above)) | E (E represents a pKi value of 7 or below (Ki of 100 nM or above)) | A (A represents a pKi value≥10 (Ki≤0.1 nM)) | A (A represents a value of 3 or above) | E (E represents a pKi value of 7 or below (Ki of 100 nM or above)) | B (B represents a pC50 value between 6.7 (included) and 7.5 (IC50 between 200 nM and 32 nM)) |
| C=CC(=O)N1CC(CCn2c(=O)ccc3cnc(Nc4ccc(N(C)CCO)cc4)nc32)C1 [Example 224] | E (E represents a pKi value of 7 or below (Ki of 100 nM or above)) | E (E represents a pKi value of 7 or below (Ki of 100 nM or above)) | B (B represents pKi value between 9 and 10 (Ki between 1 nM and 0.1 nM)) | A (A represents a value of 3 or above) | E (E represents a pKi value of 7 or below (Ki of 100 nM or above)) | B (B represents a pC50 value between 6.7 (included) and 7.5 (IC50 between 200 nM and 32 nM)) |
| C=CC(=O)N1CC(CCn2c(=O)ccc3cnc(Nc4ccc(N(C)Cc5ccccc5)cc4)nc32)C1 [Example 225] | E (E represents a pKi value of 7 or below (Ki of 100 nM or above)) | E (E represents a pKi value of 7 or below (Ki of 100 nM or above)) | B (B represents pKi value between 9 and 10 (Ki between 1 nM and 0.1 nM)) | A (A represents a value of 3 or above) | E (E represents a pKi value of 7 or below (Ki of 100 nM or above)) | C (C represents a pIC50 value between 6 and 6.7 (IC50 between 1 μM and 200 nM)) |
| C=CC(=O)N1CC(CCn2c(=O)ccc3cnc(Nc4ccn(C)n4)nc32)C1 [Example 226] | E (E represents a pKi value of 7 or below (Ki of 100 nM or above)) | E (E represents a pKi value of 7 or below (Ki of 100 nM or above)) | B (B represents pKi value between 9 and 10 (Ki between 1 nM and 0.1 nM)) | A (A represents a value of 3 or above) | E (E represents a pKi value of 7 or below (Ki of 100 nM or above)) | C (C represents a pIC50 value between 6 and 6.7 (IC50 between 1 μM and 200 nM)) |
| C[C@H]1CN(c2ccc(Nc3ncc4ccc(=O)n(CCC5CN(C(=O)/C=C/CN(C)C)C5)c4n3)cc2)CCN1C [Example 227] | E (E represents a pKi value of 7 or below (Ki of 100 nM or above)) | E (E represents a pKi value of 7 or below (Ki of 100 nM or above)) | B (B represents pKi value between 9 and 10 (Ki between 1 nM and 0.1 nM)) | A (A represents a value of 3 or above) | E (E represents a pKi value of 7 or below (Ki of 100 nM or above)) | C (C represents a pIC50 value between 6 and 6.7 (IC50 between 1 μM and 200 nM)) |
| C[C@@H]1CN(c2ccc(Nc3ncc4ccc(=O)n(CCC5CN(C(=O)/C=C/CN(C)C)C5)c4n3)cc2)CCN1C [Example 228] | E (E represents a pKi value of 7 or below (Ki of 100 nM or above)) | E (E represents a pKi value of 7 or below (Ki of 100 nM or above)) | B (B represents pKi value between 9 and 10 (Ki between 1 nM and 0.1 nM)) | A (A represents a value of 3 or above) | E (E represents a pKi value of 7 or below (Ki of 100 nM or above)) | C (C represents a pIC50 value between 6 and 6.7 (IC50 between 1 μM and 200 nM)) |

Reference: patent publication US11697648B2, “Fused pyrimidine pyridinone compounds as JAK inhibitors” (THERAVANCE BIOPHARMA R&D IP, LLC, priority 2019, dated 2023)
